Source: patent US5550145A, “Potentiation of antimicrobial effects” (Bioglan AB, priority 1992, dated 1996)
≈ marks a conversion by molar mass, not a printed value.

Key:
[1] = system: S. aureus; assay: MIC (minimum inhibitory concentration) determination; assay type: cell-based
[2] = system: S. epidermis; assay: as above; assay type: cell-based
[3] = system: C. albicans; assay: as above; assay type: cell-based
[4] = system: T. rubrum; assay: as above; assay type: cell-based
[5] = system: P. ovale; assay: as above; assay type: cell-based
[6] = system: Gram positive bacteria; conditions: effects demonstrated only on Gram positive bacteria; cited from earlier work
[7] = generally accepted; cited from earlier work
[8] = system: aerobic bacteria; assay: Killing effect; assay type: cell-based; conditions: aqueous solutions of tinidazole; test not described
Protocol: The composition was prepared as in Example 4. […] In particular, the product is usable for disease states such as acne and seborrhoea.

Work on OCCCCCO [1,5-pentanediol solution, 1,5-pentanediol] yielded an MIC value [1] of 50 mg/mL (≈ 480 mM), an MIC value [2] of 50 mg/mL (≈ 480 mM) and an MIC value [3] of 40 mg/mL (≈ 384 mM). For the same compound, the MIC value [4] was 10 mg/mL (≈ 96 mM) and the MIC value [5] was 20 mg/mL (≈ 192 mM).
In the case of CCCCCCCCCCCC(=O)OCC(O)CO (stereo not shown) [monolaurin, monoglyceride of lauric acid], the “antimicrobial properties per se” value [6] is listed as “exhibit certain antimicrobial properties” and the toxicity [7] is listed as “completely non-toxic”.
For CCCCCCCCCCCCCC(=O)OCC(O)CO (stereo not shown) [monomyristin, monoglyceride of myristic acid], the “antimicrobial properties per se” value [6] is given as “exhibit certain antimicrobial properties” and the toxicity [7] is given as “completely non-toxic”.
With CCS(=O)(=O)CCn1c([N+](=O)[O-])cnc1C [tinidazole] the “effectiveness of aqueous solutions against aerobic bacteria” value [8] was “not effective”.
